Test results as given in US20100298141A1, “SUBSTITUTED PYRIDINE N-OXIDE HERBICIDES” (E. I. DU PONT DE NEMOURS AND COMPANY, priority 2007, published 2010).

Experiments:
barnyardgrass [1] = experiment: Test A pre-/postemergence greenhouse test; type: in vivo, Echinochloa crus-galli; conditions: for Plant response rating, Barnyardgrass: 0 to 100 scale where 0 is no effect and 100 is complete control; for Barnyardgrass plant response rating: 0 to 100 scale
Procedure, shortened: (§1)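 Visual injury ratings, made relative to untreated controls roughly ten days after treatment, cover both preemergence and postemergence application. Compounds in a surfactant-containing non-phytotoxic solvent were sprayed onto the soil surface after sowing and, simultaneously, onto young plants at the one- to two-leaf stage.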

crabgrass = experiment: Test A pre-/postemergence greenhouse test; type: in vivo, Digitaria sanguinalis; conditions: for Plant response rating, Crabgrass, Large: 0 to 100 scale where 0 is no effect and 100 is complete control; for Crabgrass, Large plant response rating: 0 to 100 scale
Procedure, shortened: as §1

giant foxtail = experiment: Test A pre-/postemergence greenhouse test; type: in vivo, Setaria faberi; conditions: for Plant response rating, Foxtail, Giant: 0 to 100 scale where 0 is no effect and 100 is complete control; for Foxtail, Giant plant response rating: 0 to 100 scale
Procedure, shortened: as §1

morningglory = experiment: Test A pre-/postemergence greenhouse test; type: in vivo, Ipomoea spp.; conditions: for Plant response rating, Morningglory: 0 to 100 scale where 0 is no effect and 100 is complete control; for Morningglory plant response rating: 0 to 100 scale
Procedure, shortened: as §1

redroot pigweed = experiment: Test A pre-/postemergence greenhouse test; type: in vivo, Amaranthus retroflexus; conditions: for Plant response rating, Pigweed: 0 to 100 scale where 0 is no effect and 100 is complete control; for Pigweed plant response rating: 0 to 100 scale
Procedure, shortened: as §1

velvetleaf = experiment: Test A pre-/postemergence greenhouse test; type: in vivo, Abutilon theophrasti; conditions: for Plant response rating, Velvetleaf: 0 to 100 scale where 0 is no effect and 100 is complete control; for Velvetleaf plant response rating: 0 to 100 scale
Procedure, shortened: as §1

wheat = experiment: Test A pre-/postemergence greenhouse test; type: in vivo, Triticum aestivum; conditions: for Plant response rating, Wheat: 0 to 100 scale where 0 is no effect and 100 is complete control; for Wheat plant response rating: 0 to 100 scale
Procedure, shortened: as §1

corn = experiment: Test A pre-/postemergence greenhouse test; type: in vivo, Zea mays; conditions: for Plant response rating, Corn: 0 to 100 scale where 0 is no effect and 100 is complete control; for Corn plant response rating: 0 to 100 scale
Procedure, shortened: as §1

rice = experiment: Test C flooded paddy test; type: in vivo, Oryza sativa; conditions: Flood
Procedure, shortened: (§2)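 Compound was added to standing water 3 cm above soil, flood maintained, and plants held in a greenhouse before visual scoring against controls at 13 to 15 days.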

umbrella sedge = experiment: Test C flooded paddy test; type: in vivo, Cyperus difformis; conditions: Flood
Procedure, shortened: as §2

duck salad = experiment: Test C flooded paddy test; type: in vivo, Heteranthera limosa; conditions: Flood
Procedure, shortened: as §2

barnyardgrass [2] = experiment: Test C flooded paddy test; type: in vivo, Echinochloa crus-galli; conditions: Flood
Procedure, shortened: as §2

[3] = Postemergence, 500 g ai/ha, 0 is no effect, 100 is complete control
[4] = Preemergence, 125 g ai/ha, 0 no effect, 100 complete control
[5] = 31 g ai/ha, scale 0 to 100 (0 no effect, 100 complete control)
[6] = 62 g ai/ha, scale 0 to 100, 0 no effect, 100 complete control, 13 to 15 days
[7] = 125 g ai/ha, scale 0 to 100, 0 no effect, 100 complete control, 13 to 15 days
[8] = 250 g ai/ha, scale 0 to 100, 0 no effect, 100 complete control, 13 to 15 days

In the case of Cn1nc(C(F)(F)F)c(CS(=O)(=O)c2ccc(F)c[n+]2[O-])c1Cl [Compound 53], the “Plant response rating, Barnyardgrass” value (barnyardgrass [1]; Postemergence, 125 g ai/ha) is reported as 60, the “Barnyardgrass plant response rating” value (barnyardgrass [1]; [3]) is reported as 80 and the “Barnyardgrass plant response rating” value (barnyardgrass [1]; [4]) is reported as 50. The “Plant response rating, Barnyardgrass” value (barnyardgrass [1]; Preemergence, 500 g ai/ha) was 80, the “Plant response rating, Crabgrass, Large” value (crabgrass; Postemergence, 125 g ai/ha) was 40 and the “Crabgrass, Large plant response rating” value (crabgrass; [3]) was 80. For the same molecule, the “Crabgrass, Large plant response rating” value (crabgrass; [4]) was 60, the “Plant response rating, Crabgrass, Large” value (crabgrass; Preemergence, 500 g ai/ha) was 90 and the “Plant response rating, Foxtail, Giant” value (giant foxtail; Postemergence, 125 g ai/ha) was 80. The “Foxtail, Giant plant response rating” value (giant foxtail; [3]) was 90, the “Foxtail, Giant plant response rating” value (giant foxtail; [4]) was 60 and the “Plant response rating, Foxtail, Giant” value (giant foxtail; Preemergence, 500 g ai/ha) was 80. For the same molecule, the “Plant response rating, Morningglory” value (morningglory; Postemergence, 125 g ai/ha) was 20, the “Morningglory plant response rating” value (morningglory; [3]) was 30 and the “Morningglory plant response rating” value (morningglory; [4]) was 30. The “Plant response rating, Morningglory” value (morningglory; Preemergence, 500 g ai/ha) was 70, the “Plant response rating, Pigweed” value (redroot pigweed; Postemergence, 125 g ai/ha) was 20 and the “Pigweed plant response rating” value (redroot pigweed; [3]) was 50. The “Pigweed plant response rating” value (redroot pigweed; [4]) was 100, the “Plant response rating, Pigweed” value (redroot pigweed; Preemergence, 500 g ai/ha) was 100 and the “Plant response rating, Velvetleaf” value (velvetleaf; Postemergence, 125 g ai/ha) was 0. The “Velvetleaf plant response rating” value (velvetleaf; [3]) was 0, the “Velvetleaf plant response rating” value (velvetleaf; [4]) was 0 and the “Plant response rating, Velvetleaf” value (velvetleaf; Preemergence, 500 g ai/ha) was 0. For the same molecule, the “Plant response rating, Wheat” value (wheat; Postemergence, 125 g ai/ha) was 0, the “Wheat plant response rating” value (wheat; [3]) was 0 and the “Wheat plant response rating” value (wheat; [4]) was 0. For the same molecule, the “Plant response rating, Wheat” value (wheat; Preemergence, 500 g ai/ha) was 0, the “Plant response rating, Corn” value (corn; Postemergence, 125 g ai/ha) was 0 and the “Corn plant response rating” value (corn; [3]) was 0. The “Corn plant response rating” value (corn; [4]) was 0, the “Plant response rating, Corn” value (corn; Preemergence, 500 g ai/ha) was 0 and the “Plant response rating, Rice” value (rice; [5]) was 0. The “Plant response rating, Rice” value (rice; [6]) was 25, the “Plant response rating, Rice” value (rice; [7]) was 60 and the “Plant response rating, Rice” value (rice; [8]) was 75. For the same molecule, the “Plant response rating, Sedge, Umbrella” value (umbrella sedge; [5]) was 20, the “Plant response rating, Sedge, Umbrella” value (umbrella sedge; [7]) was 80 and the “Plant response rating, Sedge, Umbrella” value (umbrella sedge; [8]) was 90. For the same molecule, the “Plant response rating, Ducksalad” value (duck salad; [5]) was 20, the “Plant response rating, Ducksalad” value (duck salad; [6]) was 60 and the “Plant response rating, Ducksalad” value (duck salad; [7]) was 100. For the same molecule, the “Plant response rating, Ducksalad” value (duck salad; [8]) was 100, the “Plant response rating, Barnyardgrass” value (barnyardgrass [2]; [5]) was 0 and the “Plant response rating, Barnyardgrass” value (barnyardgrass [2]; [6]) was 0. For the same molecule, the “Plant response rating, Barnyardgrass” value (barnyardgrass [2]; [7]) was 60 and the “Plant response rating, Barnyardgrass” value (barnyardgrass [2]; [8]) was 80.
